{"source": "patent US10294234B2", "about": "“HIV inhibitor compounds” (priority 2017, dated 2019)", "data": [{"tested_on": "HIV-1 (IIIB) in MT-4 cells", "test": "MT-4 HIV assay", "assay_type": "cell-based", "details": "HIV-1 (IIIB), MT-4 cells, 5 days, Cell Titer Glo; read-out: EC50", "outline": "(§1)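 Antiviral activity was read by Cell Titer Glo after a 5-day, 37 °C culture of MT-4 cells pre-infected with a 1:250 dilution of HIV-1 (IIIB). Compounds were tested as threefold dilution series in complete RPMI. Controls were no drug, mock infection and 5 uM AZT.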", "units": {"EC50": "nM"}, "values": [{"compound": "COC(=O)N[C@H](C(=O)N[C@@H](Cc1ccc(C#Cc2ccc(N3CC4CC(C3)N4C3COC3)nc2)cc1)[C@@H](O)CN(Cc1c(F)cc(-c2ccc(F)cn2)cc1F)NC(=O)[C@@H](NC(=O)OC)C(C)(C)C(F)(F)F)C(C)(C)C(F)(F)F", "note": "[Example 139, Methyl ((5S,10S,11S,14S)-8-(2,6-difluoro-4-(5-fluoropyridin-2-yl)benzyl)-16,16,16-trifluoro-10-hydroxy-15,15-dimethyl-11-(4-((6-(6-(oxetan-3-yl)-3,6-diazabicyclo[3.1.1]heptan-3-yl)pyridin-3-yl)ethynyl)benzyl)-3,6,13-trioxo-5-(1,1,1-trifluoro-2-methylpropan-2-yl)-2-oxa-4,7,8,12-tetraazahexadecan-14-yl)carbamateate]", "EC50": 3.92}]}, {"tested_on": "HIV-1 (IIIB) in MT-4 cells", "test": "MT-4 HIV assay", "assay_type": "cell-based", "details": "Human immunodeficiency virus 1, MT4, 120 h", "outline": "as §1", "units": {"EC50": "nM"}, "values": [{"compound": "COC(=O)N[C@H](C(=O)N[C@@H](Cc1ccc(C#Cc2ccc(N3CC4CC(C3)CN(C3COC3)C4)nc2)cc1)[C@@H](O)CN(Cc1c(F)cc(-c2cnn(C(F)F)c2)cc1F)NC(=O)[C@@H](NC(=O)OC)C(C)(C)C(F)(F)F)C(C)(C)C(F)(F)F", "note": "[Example 65, Methyl ((5S,8S,9S,14S)-11-(4-(1-(difluoromethyl)-1H-pyrazol-4-yl)-2,6-difluorobenzyl)-16,16,16-trifluoro-9-hydroxy-15,15-dimethyl-8-(4-((6-(7-(oxetan-3-yl)-3,7-diazabicyclo[3.3.1]nonan-3-yl)pyridin-3-yl)ethynyl)benzyl)-3,6,13-trioxo-5-(1,1,1-trifluoro-2-methylpropan-2-yl)-2-oxa-4,7,11,12-tetraazahexadecan-14-yl)carbamate]", "EC50": 7.7}, {"compound": "COC(=O)N[C@H](C(=O)N[C@@H](Cc1ccc(C#Cc2ccc(N3C[C@H]4C[C@@H]3CN4C3COC3)nc2)cc1)[C@@H](O)CN(Cc1c(F)cc(-c2nnc(C3CC3)s2)cc1F)NC(=O)[C@@H](NC(=O)OC)C(C)(C)C(F)(F)F)C(C)(C)C(F)(F)F", "note": "[Example 27, Methyl ((5S,8S,9S,14S)-11-(4-(5-cyclopropyl-1,3,4-thiadiazol-2-yl)-2,6-difluorobenzyl)-16,16,16-trifluoro-9-hydroxy-15,15-dimethyl-8-(4-((6-((1R,4R)-5-(oxetan-3-yl)-2,5-diazabicyclo[2.2.1]heptan-2-yl)pyridin-3-yl)ethynyl)benzyl)-3,6,13-trioxo-5-(1,1,1-trifluoro-2-methylpropan-2-yl)-2-oxa-4,7,11,12-tetraazahexadecan-14-yl)carbamate]", "EC50": 3.5}, {"compound": "COC(=O)N[C@H](C(=O)N[C@@H](Cc1ccc(C#Cc2ccc(N3CC4CCC(C3)N4CC3CN(C(=O)OC(C)(C)C)C3)nc2)cc1)[C@@H](O)CN(Cc1c(F)cc(-c2cnn(C(F)F)c2)cc1F)NC(=O)[C@@H](NC(=O)OC)C(C)(C)C(F)(F)F)C(C)(C)C(F)(F)F", "note": "[Example 110, tert-butyl 3-((3-(5-((4-((2S,3S)-4-(1-(4-(1-(difluoromethyl)-1H-pyrazol-4-yl)-2,6-difluorobenzyl)-2-((S)-4,4,4-trifluoro-2-((methoxycarbonyl)amino)-3,3-dimethylbutanoyl)hydrazinyl)-3-hydroxy-2-((S)-4,4,4-trifluoro-2-((methoxycarbonyl)amino)-3,3-dimethylbutanamido)butyl)phenyl)ethynyl)pyridin-2-yl)-3,8-diazabicyclo[3.2.1]octan-8-yl)methyl)azetidine-1-carboxylate]", "EC50": 30.8}, {"compound": "COC(=O)N[C@H](C(=O)N[C@@H](Cc1ccc(C#Cc2cnc(N3C[C@H]4C[C@@H]3CN4C3COC3)nc2)cc1)[C@@H](O)CN(Cc1c(F)cc(-c2ncccn2)cc1F)NC(=O)[C@@H](NC(=O)OC)C(C)(C)C(F)(F)F)C(C)(C)C(F)(F)F", "note": "[Example 24, Methyl ((5S,8S,9S,14S)-11-(2,6-difluoro-4-(pyrimidin-2-yl)benzyl)-16,16,16-trifluoro-9-hydroxy-15,15-dimethyl-8-(4-((2-((1R,4R)-5-(oxetan-3-yl)-2,5-diazabicyclo[2.2.1]heptan-2-yl)pyrimidin-5-yl)ethynyl)benzyl)-3,6,13-trioxo-5-(1,1,1-trifluoro-2-methylpropan-2-yl)-2-oxa-4,7,11,12-tetraazahexadecan-14-yl)carbamate]", "EC50": 3.82}]}, {"tested_on": "HIV-1 (IIIB) in MT-4 cells", "test": "MT-4 HIV assay", "assay_type": "cell-based", "details": "Human immunodeficiency virus 1, MT4, 120 h; HIV-1 (IIIB), MT-4 cells, 5 days, Cell Titer Glo; read-out: EC50", "outline": "as §1", "units": {"EC50": "nM"}, "values": [{"compound": "COC(=O)N[C@H](C(=O)NN(Cc1c(F)cc(-c2ccn(CC(F)F)n2)cc1F)C[C@H](O)[C@H](Cc1ccc(-c2cnc(N3CC4CCC(C3)N4C3COC3)nc2)cc1)NC(=O)[C@@H](NC(=O)OC)C(C)(C)C(F)(F)F)C(C)(C)C", "note": "[Example 193, Methyl ((5S,8S,9S,14S)-11-(4-(1-(2,2-difluoroethyl)-1H-pyrazol-3-yl)-2,6-difluorobenzyl)-9-hydroxy-15,15-dimethyl-8-(4-(2-(8-(oxetan-3-yl)-3,8-diazabicyclo[3.2.1]octan-3-yl)pyrimidin-5-yl)benzyl)-3,6,13-trioxo-5-(1,1,1-trifluoro-2-methylpropan-2-yl)-2-oxa-4,7,11,12-tetraazahexadecan-14-yl)carbamate]", "EC50": 2.78}, {"compound": "COC(=O)N[C@H](C(=O)N[C@@H](Cc1ccc(C#Cc2ccc(N3C[C@@H](C)O[C@@H](C)C3)nc2)cc1)[C@@H](O)CN(Cc1c(F)cc(-c2cnn(C(F)F)c2)cc1F)NC(=O)[C@@H](NC(=O)OC)C(C)(C)C(F)(F)F)C(C)(C)C(F)(F)F", "note": "[Example 132, Methyl ((5S,8S,9S,14S)-11-(4-(1-(difluoromethyl)-1H-pyrazol-4-yl)-2,6-difluorobenzyl)-8-(4-((6-((2S,6R)-2,6-dimethylmorpholino)pyridin-3-yl)ethynyl)benzyl)-16,16,16-trifluoro-9-hydroxy-15,15-dimethyl-3,6,13-trioxo-5-(1,1,1-trifluoro-2-methylpropan-2-yl)-2-oxa-4,7,11,12-tetraazahexadecan-14-yl)carbamate]", "EC50": 18.2}, {"compound": "COC(=O)N[C@H](C(=O)N[C@@H](Cc1ccc(C#Cc2ccc(N3CCN(C4CCOCC4)CC3)nc2)cc1)[C@@H](O)CN(Cc1c(F)cc(-c2ccn(C(F)F)n2)cc1F)NC(=O)[C@@H](NC(=O)OC)C(C)(C)C(F)(F)F)C(C)(C)C(F)(F)F", "note": "[Example 104, Methyl ((5S,8S,9S,14S)-11-(4-(1-(difluoromethyl)-1H-pyrazol-3-yl)-2,6-difluorobenzyl)-16,16,16-trifluoro-9-hydroxy-15,15-dimethyl-3,6,13-trioxo-8-(4-((6-(4-(tetrahydro-2H-pyran-4-yl)piperazin-1-yl)pyridin-3-yl)ethynyl)benzyl)-5-(1,1,1-trifluoro-2-methylpropan-2-yl)-2-oxa-4,7,11,12-tetraazahexadecan-14-yl)carbamate]", "EC50": 4.97}, {"compound": "COC(=O)N[C@H](C(=O)N[C@@H](Cc1ccc(C#Cc2ccc(N3CC4CCC(C3)N4C3COC3)cc2)cc1)[C@@H](O)CN(Cc1c(F)cc(-c2ccccn2)cc1F)NC(=O)[C@@H](NC(=O)OC)C(C)(C)C(F)(F)F)C(C)(C)C(F)(F)F", "note": "[Example 177, Methyl ((5S,8S,9S,14S)-11-(2,6-difluoro-4-(pyridin-2-yl)benzyl)-16,16,16-trifluoro-9-hydroxy-15,15-dimethyl-8-(4-((4-(8-(oxetan-3-yl)-3,8-diazabicyclo [3.2.1]octan-3-yl)phenyl)ethynyl)benzyl)-3,6,13-trioxo-5-(1,1,1-trifluoro-2-methylpropan-2-yl)-2-oxa-4,7,11,12-tetraazahexadecan-14-yl)carbamate]", "EC50": 8.12}, {"compound": "COC(=O)N[C@H](C(=O)N[C@@H](Cc1ccc(-c2cnn(C(F)F)c2)cc1)[C@@H](O)CN(Cc1c(F)cc(-c2cnn(C(F)F)c2)cc1F)NC(=O)[C@@H](NC(=O)OC)C(C)(C)C(F)(F)F)C(C)(C)C(F)(F)F", "note": "[Example 211, Methyl ((5S,8S,9S,14S)-11-(4-(1-(difluoromethyl)-1H-pyrazol-4-yl)-2,6-difluorobenzyl)-8-(4-(1-(difluoromethyl)-1H-pyrazol-4-yl)benzyl)-16,16,16-trifluoro-9-hydroxy-15,15-dimethyl-3,6,13-trioxo-5-(1,1,1-trifluoro-2-methylpropan-2-yl)-2-oxa-4,7,11,12-tetraazahexadecan-14-yl)carbamate]", "EC50": 5.75}, {"compound": "COC(=O)N[C@H](C(=O)N[C@@H](Cc1ccc(C#Cc2ccc(N3CC4CCC(C3)N4C3COC3)nc2)cc1)[C@@H](O)CN(Cc1c(F)cc(-c2ccn([C@@H]3CCOC3)n2)cc1F)NC(=O)[C@@H](NC(=O)OC)C(C)(C)C(F)(F)F)C(C)(C)C(F)(F)F", "note": "[Example 15, Methyl ((5S,8S,9S,14S)-11-(2,6-difluoro-4-(1-((R)-tetrahydrofuran-3-yl)-1H-pyrazol-3-yl)benzyl)-16,16,16-trifluoro-9-hydroxy-15,15-dimethyl-8-(4-((6-(8-(oxetan-3-yl)-3,8-diazabicyclo[3.2.1]octan-3-yl)pyridin-3-yl)ethynyl)benzyl)-3,6,13-trioxo-5-(1,1,1-trifluoro-2-methylpropan-2-yl)-2-oxa-4,7,11,12-tetraazahexadecan-14-yl)carbamate]", "EC50": 4.22}, {"compound": "COC(=O)N[C@H](C(=O)NN(Cc1c(F)cc(-c2ccn(C(F)F)n2)cc1F)C[C@H](O)[C@H](Cc1ccc(C#Cc2ccc(N3CC4CC(C3)N4C3COC3)nc2)cc1)NC(=O)[C@@H](NC(=O)OC)C(C)(C)C(F)(F)F)C(C)(C)C", "note": "[Example 12, Methyl ((5S,8S,9S,14S)-11-(4-(1-(difluoromethyl)-1H-pyrazol-3-yl)-2,6-difluorobenzyl)-9-hydroxy-15,15-dimethyl-8-(4-((6-(6-(oxetan-3-yl)-3,6-diazabicyclo[3.1.1]heptan-3-yl)pyridin-3-yl)ethynyl)benzyl)-3,6,13-trioxo-5-(1,1,1-trifluoro-2-methylpropan-2-yl)-2-oxa-4,7,11,12-tetraazahexadecan-14-yl)carbamate]", "EC50": 3.11}]}]}
